In patent publication US20260021046A1, “LIPID NANOPARTICLE AND PHARMACEUTICAL COMPOSITION” (NATIONAL UNIVERSITY CORPORATION HOKKAIDO UNIVERSITY, priority 2022, published 2026):

What was measured:
[1] = Average particle size, PDI, zeta potential (dynamic light scattering) and RNA encapsulation efficiency (RiboGreen) of lipid nanoparticles; assay type: physicochemical
Procedure: The average particle size, particle size distribution, and zeta potential of the lipid nanoparticles were measured using a Zetasizer Nano ZS (Malvern Instruments Ltd, UK) by dynamic light scattering and the form of lipid nanoparticle was measured using a transmission electron-microscope as described in NPL 12. The efficiency of mRNA encapsulation was estimated by RiboGreen fluorometry as described in NPL 13. Although the respective values vary depending on the type of pH-sensitive cationic lipid, the composition of the lipids constituting the lipid nanoparticles, the preparation conditions of the lipid nanoparticles, and the like, the average particle size of the lipid nanoparticles was in the range of 80 to 350 nm, the PDI was in the range of 0.05 to 0.4, the zeta potential was in the range of −16 to +5 mV, and the efficiency of mRNA encapsulation was 75 to 95%. • [NPL 12] Mahmoud A. Younis, et al., “A Multifunctional Lipid-Based Nanodevice for the Highly Specific Codelivery of Sorafenib and Midkine siRNA to Hepatic Cancer Cells”, Molecular Pharmaceutics, Vol. 16, pp. 4031-4044 • [NPL 13] Mahmoud M. Abd Elwakil, et al., “Engineered &-decalactone lipomers bypass the liver to selectively in vivo deliver mRNA to the lungs without targeting ligands”, Materials Horizons, Vol. 8, pp. 2251-2259
The average particle size, particle size distribution, and zeta potential of the lipid nanoparticles were measured in the same manner as in Example 1 to estimate the efficiency of SMO-siRNA encapsulation. The relationship between the flow rate ratio of the aqueous phase to the organic phase, the average particle size, particle size distribution, zeta potential, and SMO-siRNA encapsulation efficiency of the lipid nanoparticles prepared at the same flow rate ratio when CL15H6 was used as the pH-sensitive cationic lipid is shown in Table 3 below. In the subsequent experiments, lipid nanoparticles were prepared at a ratio of 4:1 (aqueous phase: organic phase), which provided the highest encapsulation efficiency, the smallest average particle size, and the smallest PDI.

[2] = system: activated hepatic stellate cell line LX-2; assay: EGFP mRNA delivery and transfection screening by FACS; assay type: cell-based; details: LX-2 cells; EGFP mRNA lipid nanoparticles, 250 ng mRNA per well
Procedure: Fourteen types of lipid nanoparticles prepared were screened with activated hepatic stellate cell line LX-2 (Merck (Germany) and hepatocyte line FL83B (ATCC, USA).
Twenty-four hours prior to the experiment, cells were seeded in 6-well plates at 1×10^5 cells/well and incubated at 37° C. The medium was aspirated and the cells were washed with (−) PBS and then treated with lipid nanoparticles encapsulating EGFP mRNA (TriLink BioTechnologies, USA) in 1.5 ml of growth medium for 24 hours. The amount of mRNA per well was 250 ng. Cells were then washed with (−) PBS and incubated in fresh medium for an additional 21 hours. The median fluorescence intensity of EGFP and the percentage of transfected cells were evaluated by fluorescence activated cell sorting (FACS) using a flow cytometer (Cytoflex, Beckman Coulter, USA).

hepatic stellate cells = assay: In vivo mRNA delivery to hepatic stellate cells in TAA-induced liver fibrosis model mice; details: 24 hours
Procedure: Thioacetamide (TAA (TCI, Japan))-induced liver fibrosis models were generated in 4-week-old male BALB/c mise (Sankyo laboratories, Japan). Specifically, TAA dissolved in saline was injected intraperitoneally at an amount of 200 mg/kg of TAA per kg of body weight. This was repeated every 3 days for a total of 10 times. The livers of the liver fibrosis model mice were examined by histopathology and hydroxyproline quantitative assay (Cell Biolabs Inc, USA), and the activation of hepatic stellate cells (HSCs) was confirmed by quantitative real-time polymerase chain reaction (qRT-PCR).
The lipid nanoparticles prepared by using CL15A6 encapsulated the above-described EGFP mRNA or firefly luciferase (FLuc) mRNA (TriLink BioTechnologies, USA), and the lipid nanoparticles were administered intravenously to mice via the tail vein so that the amount of RNA per kg of body weight was 1 mg/kg. Twenty-four hours after the administration, hepatic stellate cells and hepatocytes were collected from the livers of the mice as described in NPL 15. For EGFP mRNA, FACS was used to evaluate delivery efficiency and transfection efficiency, and for FLuc mRNA, the luciferase assay was used to evaluate delivery efficiency as described in NPL 16. • [NPL 15] Ingmar Mederacke, et al., “High-yield and high-purity isolation of hepatic stellate cells from normal and fibrotic mouse livers”, Nature Protocols, Vol. 10, pp. 305-315 • [NPL 16] Ikramy A. Khalil, et al., “Synergism between a cell penetrating peptide and a pH-sensitive cationic lipid in efficient gene delivery based on double-coated nanoparticles”, Journal of Controlled Release, Vol. 275, pp. 107-116
First, the microchannel device (iLiNP device) was operated under different conditions to prepare lipid nanoparticles with different average particle sizes. Specifically, lipid nanoparticles with an average particle size of more than 150 nm (e.g., 180 nm), lipid nanoparticles with an average particle size of 100 to 150 nm (e.g., 130 nm), and lipid nanoparticles with an average particle size of less than 100 nm (e.g., 90 nm) were prepared. The prepared lipid nanoparticles were administered intravenously to mice with liver fibrosis, and the mRNA delivery efficiency and transfection efficiency with respect to hepatic stellate cells and hepatocytes were evaluated 24 hours later.
Next, lipid nanoparticles with different nitrogen/phosphate (N/P) ratios were prepared by mixing a lipid composition containing CL15A6 with mRNA at different ratios. Specifically, lipid nanoparticles with N/P ratios of 4, 8, 12, 16, and 20 were prepared. The prepared lipid nanoparticles were intravenously administered to mice with liver fibrosis, and the mRNA delivery efficiency and transfection efficiency with respect to hepatic stellate cells and hepatocytes were evaluated 24 hours later.
Next, lipid nanoparticles containing different types of helper phospholipids were prepared by changing the type of helper phospholipid in the lipid composition containing CL15A6. As the unsaturated phosphatidylethanolamine, 1,2-dioleoyl-sn-glycero-3-phosphoethanolamine (DOPE) was used. As the unsaturated phosphatidylcholine, 1,2-dioleoyl-sn-glycero-3-phosphocholine (DOPC) was used. As the saturated phospholipid, 1,2-distearoyl-sn-glycero-3-phosphocholine (DSPC) was used. The prepared lipid nanoparticles were intravenously administered to mice with liver fibrosis, and the mRNA delivery efficiency and transfection efficiency with respect to hepatic stellate cells and hepatocytes were evaluated 24 hours later.
Next, lipid nanoparticles containing helper phospholipid (DOPE) at different molar percentages were prepared by changing the molar ratio of the helper phospholipid (DOPE). The prepared lipid nanoparticles were intravenously administered to mice with liver fibrosis, and the mRNA delivery efficiency and transfection efficiency with respect to hepatic stellate cells and hepatocytes were evaluated 24 hours later. […]

[3] = lipid nanoparticles CL15A6:DOPE:cholesterol:DMG-PEG2K 5:3:2:0.3
[4] = CL15A6 lipid nanoparticles iv, DMG-PEG2K 3 to 5 mol %
[5] = CL15A6 lipid nanoparticles, 1 mg/kg RNA iv, when particle size was reduced (>150 nm, 100 to 150 nm, <100 nm)

CCCCC/C=C\C/C=C\CCCCCCCCC(O)(CCCCCCCC/C=C\C/C=C\CCCCC)CCCCOC(=O)C1CCN(C)CC1 [CL15A6, (14z,17z)-5-hydroxy-5-((9z,12z)-octadeca-9,12-dien-1-yl)tricosa-14,17-dien-1-yl 1-methylpiperidine-4-carboxylate] gave a particle size ([1]; CL15A6 mRNA lipid nanoparticles, DMG-PEG2K 1.5 mol %) of 100 nm, an Average particle size ([1]; CL15A6 mRNA lipid nanoparticles, N/P ratio increased from 4 to 8) of 80 nm and an Average particle size [1, 3] of 80 nm. The PDI [1, 3] was less than 0.1, the “mRNA delivery efficiency (median fluorescence intensity of EGFP)” value [2] was “high and promising” and the “transfection efficiency (percentage of transfected cells)” value [2] was “promising”. For the same compound, the mRNA delivery efficiency (hepatic stellate cells; CL15A6 lipid nanoparticles iv, DMG-PEG2K 1.5 mol %) was “decreased”, the “efficiency of mRNA delivery to hepatic stellate cells” value (hepatic stellate cells; [4]) was “high” and the “hepatic stellate cells transfected in vivo” value (hepatic stellate cells; [4]) was no less than 80%. For the same compound, the “delivery of mRNA to hepatic stellate cells” value (shortened to “delivery of mRNA”) (hepatic stellate cells; CL15A6 lipid nanoparticles iv, DOPE 20 to 30 mol %) was “significantly improved”, the “delivery of mRNA” value (hepatic stellate cells; CL15A6 lipid nanoparticles iv, DOPE 40 mol %) was “reduced” and the “delivery of mRNA” value (hepatic stellate cells; CL15A6 lipid nanoparticles iv, N/P ratio increased from 4 to 8) was “significantly improved”. For the same compound, the mRNA delivery efficiency (hepatic stellate cells; CL15A6 lipid nanoparticles iv, N/P ratio increased from 16 to 20) was “decreased”, the “mRNA delivery to hepatic stellate cells” value (hepatic stellate cells; CL15A6 lipid nanoparticles iv, helper phospholipid DOPE compared to DOPC and DSPC) was “significantly improved” and the “mRNA delivery efficiency to hepatic stellate cells” value (hepatic stellate cells; [5]) was “linearly improved”. For the same compound, the “transfection efficiency of hepatic stellate cells” value (hepatic stellate cells; [5]) was “linearly improved”.
